{
  "source": "paper PMC5515969",
  "about": "“Effects of 31 FDA approved small-molecule kinase inhibitors on isolated rat liver mitochondria” (Archives of Toxicology, 2016)",
  "key": {"[1]": {"conditions": "human therapeutic Cmax at FDA recommended dosages; ref product labeling and drug approval packages at the official FDA website; cited from earlier work"}, "[2]": {"conditions": "ref FDA product labeling, cited from earlier work"}, "[3]": {"system": "isolated rat liver mitochondria", "assay": "Mitochondrial swelling (absorbance at 535 nm)", "assay_type": "biochemical", "conditions": "for effect on mitochondrial swelling: up to 100-fold Cmax or highest testable concentration, 25 µM calcium chloride"}, "[4]": {"system": "isolated rat liver mitochondria", "assay": "Mitochondrial oxygen consumption (glutamate/malate or succinate driven, state 4 and state 3)", "assay_type": "biochemical", "conditions": "for Glutamate/malate driven respiration State 4 / Succinate-driven respiration State 3 / Succinate-driven respiration State 4 / Glutamate/malate driven respiration State 3: oxygen consumption, DMSO-treated = 1; for effect on state 4 respiration: highest tested concentrations; for lowest concentration significantly affecting mitochondrial oxygen consumption: tested at 1 to 100-fold Cmax", "outline": "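Rat liver mitochondria (1 mg/ml protein) exposed 5 min to kinase inhibitors in 0.1% DMSO, then O2 consumption measured by Clark-type electrode with glutamate/malate or succinate (state 4), ADP added after 3 min (state 3). Rates normalized to 0.1% DMSO controls set to 1.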"}, "RCC IV": {"system": "RCC IV", "assay": "RCC IV activity in submitochondrial particles", "assay_type": "biochemical, rat", "conditions": "15 min, DMSO-treated = 100", "outline": "(§1)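 First, submitochondrial particles (1 mg/ml) are incubated with inhibitor for 15 min. Next, complex activities are followed spectrophotometrically, with RCC I taken as the difference between buffers lacking and containing rotenone. Finally, activities are expressed relative to DMSO controls set at 1.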"}, "RCC I": {"system": "RCC I", "assay": "RCC I activity in submitochondrial particles", "assay_type": "biochemical, rat", "conditions": "15 min, DMSO-treated = 100", "outline": "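Activity relative to DMSO (set as 1) after 15-min exposure of submitochondrial particles (1 mg/ml) to compound. RCC I is defined as rotenone-sensitive activity and RCC II is followed at 600 nm over 6 min.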"}, "RCC V": {"system": "RCC V", "assay": "RCC V activity in submitochondrial particles", "assay_type": "biochemical, rat", "conditions": "15 min, DMSO-treated = 100", "outline": "as §1"}, "RCC III": {"system": "RCC III", "assay": "RCC III activity in submitochondrial particles", "assay_type": "biochemical, rat", "conditions": "15 min, DMSO-treated = 100", "outline": "as §1"}, "[5]": {"system": "isolated rat liver mitochondria", "assay": "Mitochondrial inner membrane potential (MMP), Rhodamine 123", "assay_type": "biochemical", "conditions": "for effect on MMP: up to 100-fold Cmax or highest testable concentration", "source_text": "Fig. 3 KI effects on mitochondrial inner membrane potential (MMP). […] In a, c, data are means and standard derivations from three separate experiments. *p < 0.05 as compared to DMSO-treated samples at the end of experiments. In b, data are means of two independent experiments"}, "[6]": {"system": "isolated rat liver mitochondria", "assay": "Mitochondrial toxicity, any endpoint, intact mitochondria and submitochondrial particles", "assay_type": "biochemical", "conditions": "any endpoint", "outline": "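Rat liver mitochondria isolated by differential centrifugation in sucrose/Tris-MOPS/EGTA buffer pH 7.4, adjusted to 1 mg/ml protein before treatment. Kinase inhibitors added at 1:1000 dilution of stock; final DMSO 0.1%, with 0.1% DMSO controls.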"}, "RCC I–V": {"system": "RCC I–V", "assay": "Activities of RCC I–V, overall statements", "assay_type": "biochemical, rat", "conditions": "submitochondrial particles; for RCCs inhibited: up to 100-fold Cmax or highest testable concentration", "protocol": "KIs were incubated with submitochondrial particles (1 mg/ml) for 15 min and then RCC I–V activities measured. […] The activities of DMSO-treated samples (controls) were set as 1. […] The difference between the activity from rotenone-containing buffer and rotenone-absent buffer was considered as RCC I activity. […] For measuring RCC I/V and II activity, the changes in absorbance at 340 and 600 nm, respectively, were determined every 1 min for 6 min. For measuring RCC III and RCC IV, the changes in absorbance at 550 nm were measured every 10 s for 2 min."}, "[7]": {"system": "isolated rat liver mitochondria", "assay": "Mitochondrial ROS production (CM-H2DCFDA)", "conditions": "highest tested concentrations"}},
  "data": [
    {"smiles": "COc1cc2nccc(Oc3ccc(NC(=O)C4(C(=O)Nc5ccc(F)cc5)CC4)cc3)c2cc1OC", "note": "[Cabozantinib]", "values": [
      {"measurement": "Cmax", "setting": "[1]", "value": 2.58, "unit": "µM"},
      {"measurement": "DILI potential (based on labeling)", "setting": "[2]", "value": 0},
      {"measurement": "lowest concentration causing mitochondrial swelling", "setting": "[3]", "value": 20, "unit": "fold Cmax"},
      {"measurement": "effect on mitochondrial swelling", "setting": "[3]", "value": "significant mitochondrial swelling"},
      {"measurement": "Glutamate/malate driven respiration State 4", "setting": "[4]; 10-fold Cmax", "value": "1.46 ± 0.08"},
      {"measurement": "Succinate-driven respiration State 3", "setting": "[4]; 10-fold Cmax", "value": "1.03 ± 0.01"},
      {"measurement": "Succinate-driven respiration State 4", "setting": "[4]; 10-fold Cmax", "value": "1.23 ± 0.11"},
      {"measurement": "Glutamate/malate driven respiration State 3", "setting": "[4]; 20-fold Cmax", "value": "0.92 ± 0.05"},
      {"measurement": "Glutamate/malate driven respiration State 4", "setting": "[4]; 20-fold Cmax", "value": "1.30 ± 0.15"},
      {"measurement": "Succinate-driven respiration State 3", "setting": "[4]; 20-fold Cmax", "value": "0.94 ± 0.06"},
      {"measurement": "Succinate-driven respiration State 4", "setting": "[4]; 20-fold Cmax", "value": "1.24 ± 0.05"},
      {"measurement": "Glutamate/malate driven respiration State 4", "setting": "[4]; 30-fold Cmax", "value": "1.55 ± 0.06"},
      {"measurement": "Succinate-driven respiration State 3", "setting": "[4]; 30-fold Cmax", "value": "0.95 ± 0.05"},
      {"measurement": "Succinate-driven respiration State 4", "setting": "[4]; 30-fold Cmax", "value": "1.35 ± 0.18"},
      {"measurement": "effect on state 4 respiration", "setting": "[4]", "value": "significant increases"},
      {"measurement": "lowest concentration significantly affecting mitochondrial oxygen consumption", "setting": "[4]", "value": "tenfold"},
      {"measurement": "RCC activity IV", "setting": "RCC IV; 30-fold Cmax", "value": "113.10 ± 9.48 % of control"},
      {"measurement": "RCC activity I", "setting": "RCC I; 30-fold Cmax", "value": "80.97 ± 2.99 % of control"},
      {"measurement": "RCC activity V", "setting": "RCC V; 30-fold Cmax", "value": "91.99 ± 8.51 % of control"},
      {"measurement": "RCC activity III", "setting": "RCC III; 30-fold Cmax", "value": "90.73 ± 14.60 % of control"},
      {"measurement": "lowest concentration decreasing MMP", "setting": "[5]", "value": "tenfold"},
      {"measurement": "effect on MMP", "setting": "[5]", "value": "decrease in MMP"},
      {"measurement": "lowest concentration causing significant mitochondrial toxicity", "setting": "[6]", "value": 10, "unit": "fold Cmax"},
      {"measurement": "RCCs inhibited", "setting": "RCC I–V", "value": "both RCC I and RCC II"}
    ]},
    {"smiles": "CNC(=O)c1cc(Oc2ccc(NC(=O)Nc3ccc(Cl)c(C(F)(F)F)c3)cc2)ccn1", "note": "[Sorafenib]", "values": [
      {"measurement": "effect on ROS production", "setting": "[7]", "value": "neither of them affected ROS production"},
      {"measurement": "Cmax", "setting": "[1]", "value": 4.3, "unit": "µM"},
      {"measurement": "labeling for DILI", "setting": "[2]; W&P warnings and precautions, BBW black box warnings", "value": "W&P: fatal DILI"},
      {"measurement": "DILI potential (based on labeling)", "setting": "[2]", "value": 1},
      {"measurement": "lowest concentration causing mitochondrial swelling", "setting": "[3]", "value": 2.5, "unit": "fold Cmax"},
      {"measurement": "effect on mitochondrial swelling", "setting": "[3]", "value": "significant mitochondrial swelling"},
      {"measurement": "Glutamate/malate driven respiration State 3", "setting": "[4]; 1-fold Cmax", "value": "1.15 ± 0.09"},
      {"measurement": "Glutamate/malate driven respiration State 4", "setting": "[4]; 1-fold Cmax", "value": "2.55 ± 0.27"},
      {"measurement": "Succinate-driven respiration State 3", "setting": "[4]; 1-fold Cmax", "value": "1.00 ± 0.10"},
      {"measurement": "Succinate-driven respiration State 4", "setting": "[4]; 1-fold Cmax", "value": "1.50 ± 0.21"},
      {"measurement": "Glutamate/malate driven respiration State 3", "setting": "[4]; 2.5-fold Cmax", "value": "1.57 ± 0.06"},
      {"measurement": "Glutamate/malate driven respiration State 4", "setting": "[4]; 2.5-fold Cmax", "value": "4.92 ± 0.09"},
      {"measurement": "Succinate-driven respiration State 3", "setting": "[4]; 2.5-fold Cmax", "value": "0.62 ± 0.05"},
      {"measurement": "Succinate-driven respiration State 4", "setting": "[4]; 2.5-fold Cmax", "value": "1.43 ± 0.06"},
      {"measurement": "Glutamate/malate driven respiration State 4", "setting": "[4]; 5-fold Cmax", "value": "3.69 ± 0.12"},
      {"measurement": "Succinate-driven respiration State 3", "setting": "[4]; 5-fold Cmax", "value": "0.40 ± 0.01"},
      {"measurement": "Succinate-driven respiration State 4", "setting": "[4]; 5-fold Cmax", "value": "1.03 ± 0.08"},
      {"measurement": "Glutamate/malate driven respiration State 3", "setting": "[4]; 10-fold Cmax", "value": "0.93 ± 0.34"},
      {"measurement": "Glutamate/malate driven respiration State 4", "setting": "[4]; 10-fold Cmax", "value": "5.00 ± 1.92"},
      {"measurement": "Succinate-driven respiration State 3", "setting": "[4]; 10-fold Cmax", "value": "1.03 ± 0.19"},
      {"measurement": "Succinate-driven respiration State 4", "setting": "[4]; 10-fold Cmax", "value": "3.34 ± 0.45"},
      {"measurement": "effect on state 4 respiration", "setting": "[4]", "value": "significant increases"},
      {"measurement": "lowest concentration significantly affecting mitochondrial oxygen consumption", "setting": "[4]", "value": "equal to Cmax"},
      {"measurement": "RCC activity IV", "setting": "RCC IV; 5-fold Cmax", "value": "101.55 ± 3.61 % of control"},
      {"measurement": "RCC activity IV", "setting": "RCC IV; 10-fold Cmax", "value": "107.65 ± 10.77 % of control"},
      {"measurement": "RCC activity I", "setting": "RCC I; 5-fold Cmax", "value": "87.23 ± 10.61 % of control"},
      {"measurement": "RCC activity I", "setting": "RCC I; 10-fold Cmax", "value": "85.45 ± 11.93 % of control"},
      {"measurement": "RCC activity V", "setting": "RCC V; 10-fold Cmax", "value": "65.55 ± 6.34 % of control"},
      {"measurement": "RCC activity III", "setting": "RCC III; 5-fold Cmax", "value": "97.60 ± 5.50 % of control"},
      {"measurement": "RCC activity III", "setting": "RCC III; 10-fold Cmax", "value": "94.31 ± 7.47 % of control"},
      {"measurement": "lowest concentration decreasing MMP", "setting": "[5]", "value": "onefold"},
      {"measurement": "effect on MMP", "setting": "[5]", "value": "decrease in MMP"},
      {"measurement": "lowest concentration causing significant mitochondrial toxicity", "setting": "[6]", "value": "equal to the Cmax"},
      {"measurement": "lowest concentration inhibiting RCCs", "setting": "RCC I–V", "value": "fivefold"},
      {"measurement": "RCCs inhibited", "setting": "RCC I–V", "value": "RCC V"}
    ]}
  ]
}
